Test results taken from US20230218577A1, “USE OF HEAT SHOCK PROTEIN INHIBITORS FOR THE TREATMENT OF NEURODEVELOPMENTAL DISORDERS” (The Children's Medical Center Corporation, priority 2020, published 2023).

What was measured:
Assay type in all cases: cell-based, rat
[1] = tested on: cilia (ACIII) in Tsc2-sh hippocampal neurons; assay: cilia^HCA (GFP+ ACIII+ neurons) in Tsc2-sh neurons; details: for ciliation, acute effect: 24 hrs at DIV20, concentrations that inhibited mTORC1 (8.5 μM 17-AGG, 9 μM GA, 5.5 μM rapamycin); for rescue of cilia at later ages in culture: four-day treatment between DIV16-20, endpoint DIV20
Source text: To investigate how mTORC1 dysregulation due to neuronal TSC loss affected ciliation, High Content image-based Assays (HCAs) were developed for unbiased quantification of cilia and mTORC1 activity (hereafter cilia^HCA and mTORC1^HCA) in primary neurons. As an in vitro model of TSC, rat hippocampal neurons transduced with lentiviral vectors (LV) expressing a short hairpin RNA (shRNA) were used directed against either the Tsc2 (Tsc2-sh) or the luciferase gene as a control (ctrl-sh) tagged with GFP. LV-mediated Tsc2 knockdown recapitulates several in vivo manifestations observed in mouse models of TSC (Di Nardo et al., Tuberous sclerosis complex activity is required to control neuronal stress responses in an mTOR-dependent manner; J Neurosci 29, 5926-5937 (2009); Di Nardo et al., Neuronal Tsc1/2 complex controls autophagy through AMPK-dependent regulation of ULK1; Hum Mol Genet 23, 3865-3874 (2014); Ebrahimi-Fakhari et al., Impaired Mitochondrial Dynamics and Mitophagy in Neuronal Models of Tuberous Sclerosis Complex; Cell Rep 17, 1053-1070 (2016); Ercan et al., Neuronal CTGF/CCN2 negatively regulates myelination in a mouse model of tuberous sclerosis complex; The Journal of experimental medicine 214, 681-697 (2017); Nie et al., The Stress-Induced Atf3-Gelsolin Cascade Underlies Dendritic Spine Deficits in Neuronal Models of Tuberous Sclerosis Complex; J Neurosci 35, 10762-10772 (2015); Nie et al., Tsc2-Rheb signaling regulates EphA-mediated axon guidance. Nat Neurosci 13, 163-172 (2010)). In vitro phenotypes include robust TSC2 protein downregulation and mTORC1 activation as shown by the time course of increased phosphorylation of ribosomal protein S6 at serine 240/244 (pS6) (FIGS. 8A-B). Both the cilia^HCA and mTORC1^HCA were optimized as imaged-based assays, where cilia and mTORC1 activity was monitored by immunofluorescent staining of ACIII to identify cilia and pS6 as a proxy of mTORC1 activation (FIGS. 8C-F). Neurons were transduced in culture at day in vitro (DIV) 1, and cilia and mTORC1 activity were assessed in a time course experiment at DIV2, 5, 7, 13, and 20 (FIG. 2A). LV-infected neurons with cilia or with phosphorylated S6 (GFP^+ ACIII^+ and GFP^+pS6^+ respectively) were identified by automated algorithms to detect subcellular structures and their co-localization specifically optimized for each assay. In control neurons, cilia development was observed between DIV2-5, which remained stable between DIV7 and DIV20 (FIGS. 2B, D). […] Reduced ciliation was validated by manual imaging and quantification of LV-infected neurons co-labeled with ACIII/centrin (FIGS. 8G-H). No changes in size or ACIII intensity were detected in the remaining cilia of the Tsc2-sh neurons (FIGS. 8I-J).
Rat hippocampal neurons were plated at a density of 20,000/well in 96-well plates (Greiner #655090) coated with Poly-D-Lysine (PDL) at 20 μg/ml. Neurons were transduced with lentivirus and processed for immunofluorescent staining at endpoint assay by fixation with 4% PFA followed by permeabilization in ice cold 100% Methanol. Neurons were then washed 3 times in PBS/0.05% Tween (PBT) containing 50 mM glycine and blocked in 2% bovine serum albumin (Sigma) in PBT (PBT/Block) at RT. For consistent and robust identification of the LV-infected neurons, cultures of both the cilia^HCA and mTORC1^HCA were stained with GFP antibody and co-labeled with ACIII or pS6 for the identification of respectively cilia and mTORC1 activity. Primary antibodies were incubated in PBT/Block overnight. The following day, neurons were washed in PBT and incubated with secondary antibodies followed by Hoechst staining. After washing with PBT, neurons were kept in PBS buffer. Aside from primary and secondary antibody administration, all the washing for immunofluorescent staining was done using the Agilent bravo automated liquid handler. […]

Tsc2-sh neurons = assay: Toxicity: number of nuclei per field in Tsc2-sh neurons; details: four days (DIV9-13), nuclei stained at DIV13
Experimental: HSP90 inhibitors were tested to determine their effect on ciliation in TSC2-deficient neurons. Tsc2 was knocked down using an shRNA in primary rat neurons. The neurons were then treated with different doses of either CUDC-305 or NPV-HSP-990. To assess toxicity for CUDC-305, Tsc2-sh neurons were treated with increasing concentrations (6 nM, 12.5 nM, 25 nM, 50 nM, 100 nM, 200 nM, 400 nM) of CUDC-305 for four days (DIV9-13) and then stained for nuclei at DIV13 to determine the number of nuclei per field. […] The effect of ciliation of Tsc2-sh neurons after treatment with CUDC-305 was then examined.
Another HSP90 inhibitor, NPV-HSP-990, was examined for its effect on ciliation in TSC2-deficient neurons. To assess toxicity for NPV-HSP-990, Tsc2-sh neurons were treated with increasing concentrations (0.05 nM, 0.16 nM, 0.5 nM, 1.5 nM, 4.4 nM, 13.3 nM, 40 nM) of NPV-HSP-990 for four days (DIV9-13) and then stained for nuclei at DIV 13 to determine the number of nuclei per field.

[2] = tested on: pS6, IGF-IRβ in ctrl-sh neurons; assay: Western blot of pS6 and IGF-IRβ in ctrl-sh neurons; details: dose curve
[3] = four days (DIV9-13), any dose tested

In the case of `CO[C@H]1C[C@@H]2CC[C@@H](C)[C@@](O)(O2)C(=O)C(=O)N2CCCC[C@H]2C(=O)O[C@H]([C@H](C)C[C@@H]2CC[C@@H](O)[C@H](OC)C2)CC(=O)[C@H](C)/C=C(\C)[C@@H](O)[C@@H](OC)C(=O)[C@H](C)C[C@H](C)/C=C/C=C/C=C/1C` [rapamycin], the “ciliation, acute effect” value [1] is reported as “Neither of the Hsp90 inhibitors nor rapamycin rescued ciliation”, the “rescue of cilia at later ages in culture” value [1] is reported as “Neither rapamycin nor a four-day 17-AGG treatment regimen was able to rescue the cilia” and the ciliation ([1]; rapamycin 20 nM acute (1 day) treatment) is reported as “no effect”. For the same molecule, the ciliation ([1]; rapamycin 20 nM for eight days between DIV5-13) was “significant increase”, the ciliation ([1]; rapamycin 20 nM for four days between DIV9-13) was “significant increase” and the ciliation ([1]; rapamycin 20 nM, later ages (DIV20) in culture) was “no effect”.
For `COc1cccc(-c2cc(F)ccc2[C@H]2Cc3nc(N)nc(C)c3C(=O)N2)n1` [NPV-HSP-990, (R)-2-amino-7-((R)-4-fluoro-2-(6-methoxypyridin-2-yl)phenyl)-4-methyl-7,8-dihydropyrido[4,3-d]pyrimidin-5(6H)-one], the “doses at which the number of nuclei began to reduce (suggestive of toxicity)” value (Tsc2-sh neurons) was “above 4.4 nM” and the ciliation [1, 3] was “not observed”.
With `C=CCNC1=C2C[C@@H](C)C[C@H](OC)[C@H](O)[C@@H](C)/C=C(\C)[C@H](OC(N)=O)[C@@H](OC)C=C/C=C(\C)C(=O)NC(=CC1=O)C2=O` [17-AGG, 3 S,5S,6R,7S,8E,10R,11S,12E,14E)-21-(allylamino)-6-hydroxy-5,11-dimethoxy-3,7,9,15-tetramethyl-16,20,22-trioxo-17-azabicyclo[16.3.1]docosa-8,12,14,18,21-pentaen-10-yl] carbamate] the IGF-IRβ levels [2] was “reduced”, the S6 phosphorylation [2] was “reduced” and the “ciliation, acute effect” value [1] was “Neither of the Hsp90 inhibitors nor rapamycin rescued ciliation”. For the same molecule, the EC50 ([1]; Rattus norvegicus, Hippocampal neuron, treatment between DIV9-13, read-out: EC50^cilia (cilia rescue)) was 15 nM and the “rescue of cilia at later ages in culture” value [1] was “Neither rapamycin nor a four-day 17-AGG treatment regimen was able to rescue the cilia”.
With `CN(C)c1cc2c(cc1Sc1nc3c(N)nccc3n1CCNCC(C)(C)C)OCO2` [CUDC-305, 4-amino-2-[[6-(dimethylamino)-1,3-benzodioxol-5-yl]thio]-N-(2,2-dimethylpropyl)-1H-imidazo[4,5-c]pyridine-1-ethanamine] the “doses at which the number of nuclei began to reduce (suggestive of toxicity)” value (Tsc2-sh neurons) was “above 100 nM” and the ciliation [1, 3] was “No increase”.
